The record followed here is patent US20140137294A1, “GLUCOSINOLATE TRANSPORTER PROTEIN AND USES THEREOF” (UNIVERSITY OF COPENHAGEN, priority 2010, published 2014).

Type in all cases: cell-based
The target of one assay is T1, AtGTR2 (Arabidopsis thaliana, UniProt Q9LV10).
T1 construct: expressed in transfected cells; host or cells: Xenopus oocytes injected with in vitro transcribed cRNA (vector pNB1u)
T1 sequence (Q9LV10 1-616): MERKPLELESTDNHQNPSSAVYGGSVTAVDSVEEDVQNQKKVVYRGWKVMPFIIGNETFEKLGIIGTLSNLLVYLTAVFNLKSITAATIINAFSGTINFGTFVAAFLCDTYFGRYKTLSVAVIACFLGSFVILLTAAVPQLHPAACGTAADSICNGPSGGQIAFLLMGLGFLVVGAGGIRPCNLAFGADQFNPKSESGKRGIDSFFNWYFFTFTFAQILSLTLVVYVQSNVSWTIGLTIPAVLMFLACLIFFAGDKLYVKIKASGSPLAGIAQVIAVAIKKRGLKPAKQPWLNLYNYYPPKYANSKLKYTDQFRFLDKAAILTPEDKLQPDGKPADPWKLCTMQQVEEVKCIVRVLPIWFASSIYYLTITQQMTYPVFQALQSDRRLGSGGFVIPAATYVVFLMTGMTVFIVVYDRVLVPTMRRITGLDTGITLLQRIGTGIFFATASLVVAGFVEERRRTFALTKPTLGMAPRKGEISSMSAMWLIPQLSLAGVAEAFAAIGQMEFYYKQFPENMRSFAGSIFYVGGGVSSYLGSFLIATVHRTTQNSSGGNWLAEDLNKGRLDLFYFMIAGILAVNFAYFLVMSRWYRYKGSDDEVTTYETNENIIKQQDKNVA
The assay can be described thus: Uptake of C14-labeled pOHBG in AtGTR2 expressing oocytes in presence of excess competitor. The conditions noted are these: 50× excess unlabeled competitor, AtGTR2, pH 5. As for the experimental part: (§1) FIG. 3: Biochemical analysis of AtGTR1 and 2 mediated GSL transport in Xenopus oocytes. A and B, pH dependence of AtGTR-mediated GSL transport. A, AtGTR2 mediated 4-MTB uptake measured by LC-MS analysis of oocyte extracts, n=3 oocytes. B, AtGTR1 currents induced by 1 mM 4-MTB were measured at different membrane potentials at pH 5 ([…]), pH 6 (♦), and pH 7 (▴). Currents were normalized to the current induced at pH 5 at −60 mV, error bars are SD, n=4 oocytes. C and D, kinetic analysis of AtGTR-mediated glucosinolate transport. […]
(§2) The substrate specificity investigations were extended to include substrates previously identified for the NRT/PTR transporter family namely di- and tripeptides and nitrate. […] However, perfusing with 1 mM NO3^− did result in currents but these amounted only to 1/10th of currents measured when perfusing with 100 μM 4-MTB (FIG. 3F). […]
(§3) For assays with radiolabeled substrates, single oocytes were ruptured in 100 μl 10% SDS in 4 ml scintillation vials by shaking for 20-30 minutes. 2.5 ml EcoScint™ scintillation fluid (National Diagnostics) was added, and imported compounds quantified by scintillation counting. For assays with unlabeled substrates, oocyte extracts were analysed by LC-MS. Oocytes were analyzed in batches of 5 oocytes per repetition. […]

In assay [1] the target is T2, AtGTR1 (Arabidopsis thaliana, UniProt Q944G5).
T2 construct: A library of Arabidopsis transporters available as full length cDNAs from the RIKEN bioresource center; expressed in transfected cells; host or cells: Xenopus oocytes injected with in vitro transcribed cRNA
T2 sequence (Q944G5 31-636 limits assumed): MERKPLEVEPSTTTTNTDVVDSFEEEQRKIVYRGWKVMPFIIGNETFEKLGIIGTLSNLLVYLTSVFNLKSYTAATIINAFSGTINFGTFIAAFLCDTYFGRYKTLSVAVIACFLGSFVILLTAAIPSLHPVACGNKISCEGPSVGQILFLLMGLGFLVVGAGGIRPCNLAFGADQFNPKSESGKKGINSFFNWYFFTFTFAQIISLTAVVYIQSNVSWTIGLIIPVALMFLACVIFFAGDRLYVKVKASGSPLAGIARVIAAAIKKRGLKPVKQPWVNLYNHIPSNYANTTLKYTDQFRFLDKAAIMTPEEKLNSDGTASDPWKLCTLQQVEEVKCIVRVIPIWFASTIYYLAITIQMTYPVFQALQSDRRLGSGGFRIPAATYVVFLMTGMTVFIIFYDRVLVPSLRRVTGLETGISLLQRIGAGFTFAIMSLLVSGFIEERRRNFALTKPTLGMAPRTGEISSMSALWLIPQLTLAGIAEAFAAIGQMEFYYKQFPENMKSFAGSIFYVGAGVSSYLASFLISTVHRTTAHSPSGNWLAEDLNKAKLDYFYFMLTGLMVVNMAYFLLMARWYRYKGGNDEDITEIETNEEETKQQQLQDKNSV
The assay can be described thus: Substrate-induced currents in voltage-clamped Xenopus oocytes expressing AtGTR1. The conditions noted are these: 1 mM NO3−, AtGTR1.

The target of assay [2] is T2, AtGTR1. The assay can be described thus: Uptake of C14-labeled pOHBG in AtGTR1 expressing oocytes in presence of excess competitor. The conditions noted are these: 50× excess unlabeled competitor, AtGTR1, pH 5. On the procedure:
as §1, §2, §3

The next assay has as its system Xenopus oocytes. In words: 4-MTB uptake in Xenopus oocytes expressing Arabidopsis GTR and other NRT/PTR proteins (LC-MS). The conditions noted are these: pH 5, 1 mM 4-MTB.

Consider `O=[N+]([O-])O` [NO3^−, nitrate], for which the “effect on uptake of 40 μM C14-labeled pOHBG” value at AtGTR2 and at AtGTR1 [2] was “did not have significant inhibitory effects” in each case. The “currents as fraction of currents with 100 μM 4-MTB” value at AtGTR1 [1] is 1/10.

B1: AtGTR5: Arabidopsis GTR protein, SEQ ID NO: 10 (protein, listed as Arabidopsis thaliana)
chain: MVLEDRKDGSSLPGRSGSFSKSSPSELDVVDPYKRISSPGSILDAEKVEKKPGGWRAVSFILGNETLERLGSIGLLANFMVYLTKVFHLEQVDAANVINIWSGFTNLTPLVGAYISDTYVGRFKTIAFASFATLLGLITITLTASFPQLHPASCNSQDPLSCGGPNKLQIGVLLLGLCFLSVGSGGIRPCSIPFGVDQFDQRTEEGVKGVASFFNWYYMTFTVVLIITQTVVVYIQDQVSWIIGFSIPTGLMALAVVMFFAGMKRYVYVKPEGSIFSGIAQVIVAARKKRKLKLPAEDDGTVTYYDPAIKSSVLSKLHRSNQFRCLDKAAVVIEGDLTPEGPPADKWRLCSVQEVEEVKCLIRIVPIWSAGIISLAAMTTQGTFTVSQALKMDRNLGPKFEIPAGSLSVISLLTIGIFLPFYDRVFVPFMRRITGHKSGITLLQRIGTGIVFAIFSMIVAGIVERMRRIRSINAGDPTGMTPMSVFWLSPQLILMGLCEAFNIIGQIEFFNSQFPEHMRSIANSLFSLSFAGSSYLSSFLVTVVHKFSGGHDRPDWLNKNLNAGKLDYFYYLIAVLGVVNLVYFWYCARGYRYKVGLPIEDFEEDKSSDDVEMTSKKSMK
Regarding B1, the “4-MTB uptake activity compared to AtGTR1” value in the assay with Xenopus oocytes turned out to be 10%.

B2: AtGTR4: Arabidopsis GTR protein, SEQ ID NO: 8 (protein, listed as Arabidopsis thaliana)
chain: MDNEKGTSSSDLTTRQRKPLGWKAMPYIIGNETLERLATFGLMANFMVYMVREYHMDQVQAVTLINTWSALTNFAPIIGAFISDSYTGKFNTIVFGSIAELLGMLVLTFTSLVPNLRPPPCTADQITGQCIPYSYSQLYVLLSGLFLLSVGTGGIRSCSVPFSLDQFDDSTEEGREGSRSFFSWYYTTHTIVQLVSMTLVLYVQNNISWGIGFAIPTVLNFFALLLLFVGTRYYVFVKPEGSVFSGVFKVLVAAYKKRKARFTSGIDYHQPLLETDLQSNKLVLTDQFRFLNKAVIVMNNDEAGNEEWRTCTVRQIEDIKSIISIIPIFASSIIGFLAMNQQQTFTVSQALKMDLQFPGTSYLIPPASITVISLLNIGIWLPFYETVLVRHIENITKQNGGISLLQKVGIGNIFSISTMLISGIVERKRRDLSLNGVKMSVFWLTPQQVLMGFYQVFTIVGLTEFFNKQVPINMRSIGNSLLYLGLSLASYLSSAMVSIVHSVTARGGQSWLTDDIDKSKLDCFYYFIAALSTLNFIFFFWCARRYRYRNYSNEQ
On to B2, for which the “4-MTB uptake activity compared to AtGTR1” value in the assay with Xenopus oocytes was 10%.
